Measurements reported in patent US20160122340A1, “HISTONE DEACETYLASE INHIBITORS BASED ON DERIVATIVES OF TRICYCLIC POLYHYDROACRIDINE AND ANALOGS POSSESSING FUSED SATURATED FIVE-AND-SEVEN-MEMBERED RINGS” (QUIMATRYX, S.L., priority 2013, published 2016).

How the values were obtained:
[1] = molecular target: T1, Human HDAC1 (Homo sapiens, UniProt Q13547); experiment: In vitro HDAC1 inhibition, fluorogenic peptide substrate; type: biochemical; settings: read-out: IC50 (μM) HDAC-1
T1 construct: Full length with C-terminal GST tag, MW=79.9 kDa; GST (C); purchased BioMol SE-456; host or cells: baculovirus / Sf9 cells
Procedure: (§1) In Vitro Inhibitory Activity of Histone Deacetylase: Human Isoforms HDAC1, 2, 3, 4, 5, 6, 7, 8, 9, 10 and 11 and HeLa Cell Line Nuclear Extract (IC50 Data)
(§2) All HDAC assays were performed using acetylated AMC-labeled peptide substrate: • Substrate for isoforms HDAC1, 2, 3, 6, 10, 11 and HeLa nuclear extract assays: Acetylated fluorogenic peptide from p53 residues 379-382 (RHKKAc). • Substrate for isoforms HDAC 4, 5, 7, 9: Fluorogenic Boc-L-Lys(ε-trifluoroacetyl)-AMC. • Substrate for HDAC8 assays: Acetylated fluorogenic peptide from p53 residues 379-382 (RHKAcKAc).
(§3) 50 μM of substrate peptide (see ‘substrate peptides’ section above) and an optimal concentration of the corresponding enzyme (see ‘enzymes’ section above) in the assay buffer and 1% final concentration of DMSO were incubated in the presence of gradient concentrations of inhibitors (10-dose IC50 mode with 3-fold serial dilution) at 30° C. for 2 h. The reactions were carried out in a 96-well microplate for fluorometry in a 50 μl reaction volume. After the deacetylation reaction, Fluor-de-Lys-Developer (BioMol Cat. # KI-105) was added to each well to digest the deacetylated substrate, thus producing the fluorescent signal. The reaction was allowed to develop for 45 minutes at 30° C. with 5% CO2; then the fluorescent signal was measured with an excitation wavelength at 360 nm and an emission wavelength at 460 nm in a microplate-reading fluorometer (GeminiXS; Molecular Devices, Sunnyvale, Calif.). A curve of Deacetylated Standard (Biomol, Cat. # KI-142; made from 100 μM with 1:2 dilution and 10-doses, 6 μl) allowed the conversion of fluorescent signal into micromoles of deacetylated product. All experiments were performed in triplicate. IC50 was calculated by fitting the experimental data to a dose-response curve. DMSO was used as negative control; Trichostatin A (Biomol Cat. # GR-309) was used as positive control inhibitor.

[2] = molecular target: T2, Human HDAC7 (Homo sapiens, UniProt Q8WUI4); experiment: In vitro HDAC7 inhibition, fluorogenic substrate; type: biochemical; settings: read-out: IC50 (μM) HDAC-7
T2 construct: Amino acids 518-end with N-terminal GST tag, MW=78 kDa; GST (N); purchased BioMol, Hamburg, Germany; host or cells: baculovirus expression system
T2 sequence (Q8WUI4 518-952 limits assumed): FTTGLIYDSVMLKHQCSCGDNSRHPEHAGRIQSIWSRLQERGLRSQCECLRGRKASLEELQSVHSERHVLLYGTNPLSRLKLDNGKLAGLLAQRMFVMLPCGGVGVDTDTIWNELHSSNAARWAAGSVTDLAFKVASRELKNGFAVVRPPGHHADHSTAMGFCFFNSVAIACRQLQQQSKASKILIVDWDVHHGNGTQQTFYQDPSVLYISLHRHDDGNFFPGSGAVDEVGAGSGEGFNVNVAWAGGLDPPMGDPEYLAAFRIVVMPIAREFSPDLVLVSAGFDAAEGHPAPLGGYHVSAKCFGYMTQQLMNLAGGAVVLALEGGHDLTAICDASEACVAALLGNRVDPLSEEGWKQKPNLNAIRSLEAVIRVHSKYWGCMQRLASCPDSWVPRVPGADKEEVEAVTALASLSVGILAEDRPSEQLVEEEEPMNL
Procedure: as §1, §2, §3

[3] = molecular target: T3, Human HDAC9 (Homo sapiens, UniProt Q9UKV0); experiment: In vitro HDAC9 inhibition, fluorogenic substrate; type: biochemical; settings: read-out: IC50 (μM) HDAC-9
T3 construct: Amino acids 604-1066 with C-terminal His tag, MW=50.7 kDa; His (C); purchased BioMol, Hamburg, Germany; host or cells: baculovirus expression system
Procedure: as §1, §2, §3

[4] = molecular target: T4, Human HDAC11 (Homo sapiens, UniProt Q96DB2); experiment: In vitro HDAC11 inhibition, fluorogenic peptide substrate; type: biochemical; settings: read-out: IC50 (μM) HDAC-11
T4 construct: GST (N); purchased BioMol SE-560; host or cells: baculovirus expression system
T4 sequence (Q96DB2 1-347): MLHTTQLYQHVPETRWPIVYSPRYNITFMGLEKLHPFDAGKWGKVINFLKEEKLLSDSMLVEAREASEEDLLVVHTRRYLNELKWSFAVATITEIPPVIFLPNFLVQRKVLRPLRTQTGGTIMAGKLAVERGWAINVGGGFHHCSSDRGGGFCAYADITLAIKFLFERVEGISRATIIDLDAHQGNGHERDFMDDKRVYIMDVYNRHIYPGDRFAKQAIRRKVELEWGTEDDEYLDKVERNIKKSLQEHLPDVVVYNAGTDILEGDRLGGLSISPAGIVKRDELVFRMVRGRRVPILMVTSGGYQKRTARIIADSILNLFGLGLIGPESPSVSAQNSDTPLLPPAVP
Procedure: as §1, §2, §3

T3 sequence (Q9UKV0 604-1066 isoform Q9UKV0-5): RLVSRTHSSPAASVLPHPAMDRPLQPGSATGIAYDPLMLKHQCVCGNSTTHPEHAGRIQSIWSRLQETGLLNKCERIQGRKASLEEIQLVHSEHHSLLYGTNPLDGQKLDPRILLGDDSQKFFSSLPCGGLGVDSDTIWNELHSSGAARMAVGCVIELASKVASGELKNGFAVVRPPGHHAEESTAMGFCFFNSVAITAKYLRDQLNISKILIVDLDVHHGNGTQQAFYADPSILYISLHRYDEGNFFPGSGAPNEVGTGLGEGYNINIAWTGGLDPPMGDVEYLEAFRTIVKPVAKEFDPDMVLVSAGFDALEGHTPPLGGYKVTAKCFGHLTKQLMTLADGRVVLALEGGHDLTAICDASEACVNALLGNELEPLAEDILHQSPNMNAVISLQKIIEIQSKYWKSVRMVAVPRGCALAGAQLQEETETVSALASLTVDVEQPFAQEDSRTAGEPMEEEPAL
T1 sequence (Q13547 whole entry): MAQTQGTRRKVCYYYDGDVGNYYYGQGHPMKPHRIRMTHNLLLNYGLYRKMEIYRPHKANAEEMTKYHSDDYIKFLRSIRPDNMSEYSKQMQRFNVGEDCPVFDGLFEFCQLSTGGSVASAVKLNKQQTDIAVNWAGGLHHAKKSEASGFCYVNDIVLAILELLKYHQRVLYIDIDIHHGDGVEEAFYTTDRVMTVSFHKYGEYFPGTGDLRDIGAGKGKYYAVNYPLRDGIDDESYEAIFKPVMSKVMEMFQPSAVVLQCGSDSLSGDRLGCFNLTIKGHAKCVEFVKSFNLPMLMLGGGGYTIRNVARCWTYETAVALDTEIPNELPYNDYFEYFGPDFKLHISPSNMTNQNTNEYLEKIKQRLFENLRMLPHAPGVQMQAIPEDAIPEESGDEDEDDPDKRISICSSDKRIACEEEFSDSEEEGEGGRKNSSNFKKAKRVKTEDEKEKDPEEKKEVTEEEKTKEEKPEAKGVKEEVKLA

SMILES	IC50 [1] [µM]	IC50 [2] [µM]	IC50 [3] [µM]	IC50 [4] [µM]	melting point [°C]
O=C(CCCCCNc1c2c(nc3ccccc13)CCCC2)NO [Example 1, N-hydroxy-6-[(1,2,3,4-tetrahydroacridin-9-yl)amino]hexanamide]	2.99	4.55	2.47	2.21	162 to 164
O=C(CCCCCCNc1c2c(nc3ccccc13)CCCC2)NO [Example 2, N-hydroxy-7-[(1,2,3,4-tetrahydroacridin-9-yl)amino]heptanamide]	0.36	0.77	1.57	0.59	156 to 157
O=C(CCCCCCNc1c2c(nc3ccccc13)CCC2)NO [Example 3, 7-[(2,3-dihydro-1H-cyclopenta[b]quinolin-9-yl)amino]-N-hydroxyheptanamide]	0.27	> 5	> 5	0.44	165 to 166
COc1cccc2c(NCCCCCCC(=O)NO)c3c(nc12)CCCC3 [Example 5, N-hydroxy-7-[(5-methoxy-1,2,3,4-tetrahydroacridin-9-yl)amino]heptanamide]	0.9	> 5	> 5	1.04	361
O=C(CCCCCCNc1c2c(nc3ncccc13)CCCC2)NO [Example 7, N-hydroxy-7-[(6,7,8,9-tetrahydrobenzo[b][1,8]naphthyridin-5-yl)amino]heptanamide]	1.77	> 5	> 5	0.69	234 to 235
O=C(CCCCCCNc1c2c(nc3cnccc13)CCCC2)NO [Example 8, N-hydroxy-7-[(6,7,8,9-tetrahydrobenzo[b][1,7]naphthyridin-5-yl)amino]heptanamide]	1.12	> 5	> 5	0.6	56.7

The remaining lines, values ahead:

IC50 [1] [µM]	IC50 [2] [µM]	IC50 [3] [µM]	IC50 [4] [µM]	melting point [°C]	SMILES
0.84	> 5	> 5	1.22	155 to 156	O=C(CCCCCCNc1c2c(nc3ccccc13)CCCCC2)NO [Example 4, N-hydroxy-7-[(7,8,9,10-tetrahydro-6H-cyclohepta[b]quinolin-11-yl)amino]heptanamide]
> 5	> 5		> 5	187 to 188	O=C(CCCCCNC(=O)c1c2c(nc3ccccc13)CCCC2)NO [Example 10, N-[6-(hydroxyamino)-6-oxohexyl]-1,2,3,4-tetrahydroacridine-9-carboxamide]
2.95	> 5	3.17	4.1	185 to 186	O=C(CCCCCCNC(=O)c1c2c(nc3ccccc13)CCCC2)NO [Example 11, N-[7-(hydroxyamino)-7-oxoheptyl]-1,2,3,4-tetrahydroacridine-9-carboxamide]
